Data taken from PMC1479381, “Uncharged isocoumarin-based inhibitors of urokinase-type plasminogen activator” (BMC Chemical Biology, 2006).
Structures can show the parent of a compound that is named as a salt.

Tests used:
[1] = target: T1, human uPA (Homo sapiens, UniProt P00749); assay: Kinetic inhibition of human urokinase, Spectrozyme UK substrate, initial rates at 405 nm; format: biochemical; settings: for Ki: 0.1 M Tris, pH 8.8, 25°C, Spectrozyme UK 10 μM to 150 μM, read-out: Ki, dissociation constant for inhibition of human uPA; for fold improvement in Ki over compound 4d: compared with unsubstituted 4d
T1 construct: purchased Sigma/Aldrich, St. Louis, MO
Method: Human urokinase (Sigma/Aldrich, St. Louis, MO) and Spectrozyme UK (American Diagnostica, Stamford, CT) were used for the kinetic studies. Enzyme activity was routinely measured in 1 ml volumes of 0.1 M Tris, pH 8.8, Spectrozyme UK (10 μM to 150 μM) and 0.64 μg (3,770 units/mg protein) human urokinase. Reactions were monitored at 405 nm, 25°C, with a Perkin/Elmer Lambda S2 UV/vis spectrophotometer. Michaelis constants and Ki values were determined from initial rate data, measured at 8 to 10 substrate concentrations, by non-linear regression analysis with SigmaPlot's Enzyme Kinetics Module™ (Chicago, IL, USA).

| melting point | Ki [1] | fold improvement in Ki over compound 4d [1] | type of inhibition of uPA ([1]; kinetic studies) | Structure (SMILES) |
| --- | --- | --- | --- | --- |
| 126 to 128 °C | 1800 ± 200 nM | – | – | O=c1oc(OCCBr)c(Cl)c2ccc([N+](=O)[O-])cc12 [Compound 4a, 3-(2-Bromoethoxy)-4-chloro-7-nitro-1H-isochromen-1-one] |
| 131 to 134 °C | 2400 ± 200 nM | 4 fold | – | O=c1oc(OCCCBr)c(Cl)c2ccc([N+](=O)[O-])cc12 [Compound 4b, 3-(3-Bromopropoxy)-4-chloro-7-nitro-1H-isochromen-1-one] |
| 81 to 82 °C | 14000 ± 1000 nM | – | – | O=c1oc(OCCBr)c(Cl)c2ccccc12 [Compound 4c, 3-(2-Bromoethoxy)-4-chloro-1H-isochromen-1-one] |
| 95 to 97 °C | 9000 ± 1000 nM | – | simple competitive inhibition | O=c1oc(OCCCBr)c(Cl)c2ccccc12 [Compound 4d, 3-(3-Bromopropoxy)-4-chloro-1H-isochromen-1-one] |
| 168 to 170 °C | 33 ± 4 nM | – | – | Br.N=C(N)SCCOc1oc(=O)c2ccccc2c1Cl [Compound 5c, 2-[2-(4-Chloro-1-oxo-1H-isochromen-3-yloxy)ethyl]isothiourea hydrobromide] |
| 159 to 163 °C | 55 ± 3 nM | – | – | Br.N=C(N)SCCCOc1oc(=O)c2ccccc2c1Cl [Compound 5d, 2-[3-(4-Chloro-1-oxo-1H-isochromen-3-yloxy)propyl]isothiourea hydrobromide] |
| – | 140 ± 20 nM | – | – | N=C(N)SCCCCOc1oc(=O)c2ccccc2c1Cl [Compound 5e, 2-[4-(4-Chloro-1-oxo-1H-isochromen-3-yloxy)butyl]isothiourea hydrobromide] |
| 134 to 136 °C | 12000 ± 1000 nM | – | – | Nc1ccc2c(Cl)c(OCCBr)oc(=O)c2c1 [Compound 6a, 7-Amino-3-(2-bromoethoxy)-4-chloro-1H-isochromen-1-one] |
| 106 to 107 °C | 9500 ± 1000 nM | – | – | Nc1ccc2c(Cl)c(OCCCBr)oc(=O)c2c1 [Compound 6b, 7-Amino-3-(3-bromopropoxy)-4-chloro-1H-isochromen-1-one] |
| – | 20 ± 3 nM | – | – | N=C(N)SCCOc1oc(=O)c2cc(N)ccc2c1Cl [Compound 7a, 2-[2-(7-amino-4-chloro-1-oxo-1H-isochromen-3-yloxy)ethyl]isothiourea hydrobromide] |
| 173 °C | 38 ± 5 nM | – | – | Br.N=C(N)SCCCOc1oc(=O)c2cc(N)ccc2c1Cl [Compound 7b, 2-[3-(7-Amino-4-chloro-1-oxo-1H-isochromen-3-yloxy)propyl]isothiourea hydrobromide] |
| 214 to 216 °C | 1400 ± 200 nM | – | – | O=C(Nc1ccc2c(Cl)c(OCCBr)oc(=O)c2c1)c1ccccc1 [Compound 8a, N-[3-(2-Bromoethoxy)-4-chloro-1-oxo-1H-isochromen-7-yl]benzamide] |
| 193 to 194 °C | 34 ± 2 nM | 300 fold | – | O=C(Nc1ccc2c(Cl)c(OCCCBr)oc(=O)c2c1)c1ccccc1 [Compound 8b, N-[3-(3-Bromopropoxy)-4-chloro-1-oxo-1H-isochromen-7-yl]benzamide] |
| 173 to 175 °C | 84 ± 7 nM | – | – | Br.N=C(N)SCCOc1oc(=O)c2cc(NC(=O)c3ccccc3)ccc2c1Cl [Compound 9a, 2-[2-(7-Benzamido-4-chloro-1-oxo-1H-isochromen-3-yloxy)ethyl]isothiourea hydrobromide] |
| 203 to 204 °C | 10 ± 8 nM | – | – | Br.N=C(N)SCCCOc1oc(=O)c2cc(NC(=O)c3ccccc3)ccc2c1Cl [Compound 9b, 2-[3-(7-Benzamido-4-chloro-1-oxo-1H-isochromen-3-yloxy]propyl)isothiourea hydrobromide] |
| 95 to 97 °C | 4200 ± 400 nM | – | – | O=c1oc(OCCBr)cc2ccc([N+](=O)[O-])cc12 [Compound 10a, 3-(2-Bromoethoxy)-7-nitro-1H-isochromen-1-one] |
| 117 to 118 °C | 4300 ± 300 nM | – | – | O=c1oc(OCCCBr)cc2ccc([N+](=O)[O-])cc12 [Compound 10b, 3-(3-Bromopropoxy)-7-nitro-1H-isochromen-1-one] |
| 116 to 117 °C | 14000 ± 2000 nM | – | – | O=C(c1c(OCCCBr)oc(=O)c2ccccc12)C(F)(F)F [Compound 10c, 3-(3-Bromopropoxy)-4-trifluoroacetyl-1H-isochromen-1-one] |
| > 280 °C | 65000 ± 9000 nM | – | – | Nc1ccc2cc(OCCBr)oc(=O)c2c1 [Compound 11, 7-Amino-3-(2-bromoethoxy)-1H-isochromen-1-one] |

| Structure (SMILES) | melting point | Ki [1] | fold improvement in Ki over compound 4d [1] | type of inhibition of uPA ([1]; kinetic studies) |
| --- | --- | --- | --- | --- |
| O=c1oc(OCCCCBr)c(Cl)c2ccccc12 [Compound 4e, 3-(4-Bromobutoxy)-4-chloro-1H-isochromen-1-one] | 75 to 77 °C | 18000 ± 2000 nM | – | – |
